Experimental data published in the NIST ThermoML archive (doi:10.1016/j.fluid.2014.07.010).
Numbers after ± are expanded uncertainties.

Details: Liquid, Ebulliometric method (Recirculating still)

| SMILES | vapor or sublimation pressure (407.15 K) [kPa] | vapor or sublimation pressure (398.57 K) [kPa] |
| --- | --- | --- |
| CCc1cccs1 [2-ethylthiophene] | 101.33 ± 0.46 | – |
| CCCCCCCC [octane] | – | 101.33 ± 0.46 |
